Measurements as given in patent publication US8796289B2 (AbbVie Inc., priority 2011, dated 2014).

These compounds were tested against GST-tagged-Wee1 kinase (Homo sapiens, UniProt P30291) (assay: Wee1 time-resolved fluorescence equilibrium binding assay (displacement of Oregon Green-labeled ATP-competitive kinase probe)).
Chain of GST-tagged-Wee1 kinase (P30291 whole entry): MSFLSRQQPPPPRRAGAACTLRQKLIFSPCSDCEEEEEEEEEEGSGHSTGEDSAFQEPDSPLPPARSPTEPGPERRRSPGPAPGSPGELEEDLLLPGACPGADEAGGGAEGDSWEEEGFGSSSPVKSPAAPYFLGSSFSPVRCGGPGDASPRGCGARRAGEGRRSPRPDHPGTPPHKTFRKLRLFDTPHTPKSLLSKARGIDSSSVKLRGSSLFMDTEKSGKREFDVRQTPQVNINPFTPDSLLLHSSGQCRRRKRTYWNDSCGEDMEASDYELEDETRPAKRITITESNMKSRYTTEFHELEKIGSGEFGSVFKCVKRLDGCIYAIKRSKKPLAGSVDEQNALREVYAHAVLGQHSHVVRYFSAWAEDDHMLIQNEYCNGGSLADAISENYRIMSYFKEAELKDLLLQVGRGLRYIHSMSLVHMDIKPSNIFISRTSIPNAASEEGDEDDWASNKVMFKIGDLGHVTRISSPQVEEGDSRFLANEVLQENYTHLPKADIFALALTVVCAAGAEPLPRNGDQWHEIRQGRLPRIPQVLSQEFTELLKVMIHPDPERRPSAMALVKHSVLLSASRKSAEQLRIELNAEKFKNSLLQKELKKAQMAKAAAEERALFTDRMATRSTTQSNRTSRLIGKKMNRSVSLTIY
Description: Wee1 kinase was assayed using a time-resolved fluorescence equilibrium binding assay monitoring displacement of a rapidly reversible Oregon Green-labeled ATP-competitive kinase probe (N-(2-(2-(2-(4-(4-(5-chloro-4-(2-(1-hydroxycyclobutyl)thiazol-5-yl)-1H-pyrrolo[2,3-b]pyridin-2-yl)phenyl)piperazin-1-yl)ethoxy)ethoxy)ethyl)-2′,7′-difluoro-3′,6′-dihydroxy-3-oxo-3H-spiro[isobenzofuran-1,9′-xanthene]-5-carboxamide) by competitive Wee1 inhibitors.
Compound O=c1c2cnc(Nc3ccc(N4CCNCC4)cc3)nc2c(-c2cnccn2)nn1-c1c(Cl)cccc1Cl [Example 220, 6-(2,6-dichlorophenyl)-2-{[4-(piperazin-1-yl)phenyl]amino}-8-(pyrazin-2-yl)pyrimido[4,5-d]pyridazin-5(6H)-one] has a Ki of 0.4 nM. With O=c1c2cnc(Nc3ccc4c(c3)CNCC43CC3)nc2c(-c2ccccn2)nn1-c1c(Cl)cccc1Cl [Example 221, 6-(2,6-dichlorophenyl)-2-(2′,3′-dihydro-1′H-spiro[cyclopropane-1,4′-isoquinolin]-7′-ylamino)-8-(pyridin-2-yl)pyrimido[4,5-d]pyridazin-5(6H)-one] the Ki was 0.2 nM. With COC(=O)c1cc(-c2nn(-c3c(Cl)cccc3Cl)c(=O)c3cnc(Nc4ccc(N5CCN(C)CC5)cc4)nc23)ccn1 [Example 222, methyl 4-[6-(2,6-dichlorophenyl)-2-{[4-(4-methylpiperazin-1-yl)phenyl]amino}-5-oxo-5,6-dihydropyrimido[4,5-d]pyridazin-8-yl]pyridine-2-carboxylate] the Ki was 0.2 nM. Compound Cc1cc(Nc2ncc3c(=O)n(-c4c(Cl)cccc4Cl)nc(-c4ccccn4)c3n2)ccc1N1CCCN(C)CC1 [Example 223] has a Ki of 0.2 nM. With O=c1c2cnc(Nc3ccc4c(c3)CNCC4)nc2c(-c2ccncc2)nn1-c1c(Cl)cccc1Cl [Example 224, 6-(2,6-dichlorophenyl)-8-(pyridin-4-yl)-2-(1,2,3,4-tetrahydroisoquinolin-7-ylamino)pyrimido[4,5-d]pyridazin-5(6H)-one] the Ki was 0.07 nM. With CN1CCN(c2ccc(Nc3ncc4c(=O)n(-c5c(Cl)cccc5Cl)nc(-c5ccnc(C(=O)N6CCCC6)c5)c4n3)cc2)CC1 [Example 225, 6-(2,6-dichlorophenyl)-2-{[4-(4-methylpiperazin-1-yl)phenyl]amino}-8-[2-(pyrrolidin-1-ylcarbonyl)pyridin-4-yl]pyrimido[4,5-d]pyridazin-5(6H)-one] the Ki was 0.3 nM. For O=c1c2cnc(Nc3ccc(N4CCNCC4)cc3)nc2c(-c2cccc(F)n2)nn1-c1c(Cl)cccc1Cl [Example 226, 6-(2,6-dichlorophenyl)-8-(6-fluoropyridin-2-yl)-2-{[4-(piperazin-1-yl)phenyl]amino}pyrimido[4,5-d]pyridazin-5(6H)-one], the Ki was less than 1 nM. CN1Cc2cc(Nc3ncc4c(=O)n(-c5c(Cl)cccc5Cl)nc(-c5cccc(F)n5)c4n3)ccc2C2(CC2)C1 [Example 227, 6-(2,6-dichlorophenyl)-8-(6-fluoropyridin-2-yl)-2-[(2′-methyl-2′,3′-dihydro-1′H-spiro[cyclopropane-1,4′-isoquinolin]-7′-yl)amino]pyrimido[4,5-d]pyridazin-5(6H)-one] was tested, and the Ki was less than 1 nM. C=CCn1nc(-c2ccco2)c2nc(Nc3ccc(N4CCCN(C(C)C)CC4)c(C)c3)ncc2c1=O [Example 228, 8-(furan-2-yl)-2-({3-methyl-4-[4-(propan-2-yl)-1,4-diazepan-1-yl]phenyl}amino)-6-(prop-2-en-1-yl)pyrimido[4,5-d]pyridazin-5(6H)-one] was tested, and the Ki was 3 nM. With O=C1CCCN1c1ccc(-c2nn(-c3c(Cl)cccc3Cl)c(=O)c3cnc(Nc4ccc(N5CCNCC5)cc4)nc23)cc1 [Example 229, 6-(2,6-dichlorophenyl)-8-[4-(2-oxopyrrolidin-1-yl)phenyl]-2-{[4-(piperazin-1-yl)phenyl]amino}pyrimido[4,5-d]pyridazin-5(6H)-one] the Ki was 0.2 nM. With C=CCn1nc(-c2ccccc2)c2nc(Nc3ccc4c(c3)CN(C)CC4)ncc2c1=O [Example 230, 2-[(2-methyl-1,2,3,4-tetrahydroisoquinolin-7-yl)amino]-8-phenyl-6-(prop-2-en-1-yl)pyrimido[4,5-d]pyridazin-5(6H)-one] the Ki was 5 nM. CN1CCN(c2ccc(Nc3ncc4c(=O)n(-c5c(Cl)cccc5Cl)nc(-c5cc[nH]n5)c4n3)cc2)CC1 [Example 231, 6-(2,6-dichlorophenyl)-2-{[4-(4-methylpiperazin-1-yl)phenyl]amino}-8-(1H-pyrazol-3-yl)pyrimido[4,5-d]pyridazin-5(6H)-one] was tested, and the Ki was 0.1 nM. Work on CN1CCN(c2ccc(Nc3ncc4c(=O)n(-c5c(Cl)cccc5Cl)nc(-c5ccn(CCN6CCCCC6)n5)c4n3)cc2)CC1 [Example 232, 6-(2,6-dichlorophenyl)-2-{[4-(4-methylpiperazin-1-yl)phenyl]amino}-8-{1-[2-(piperidin-1-yl)ethyl]-1H-pyrazol-3-yl}pyrimido[4,5-d]pyridazin-5(6H)-one] yielded a Ki of 0.2 nM. Cc1ccccc1-n1nc(-c2ccco2)c2nc(Nc3ccc4c(c3)CN(C)CC4)ncc2c1=O [Example 233, 8-(furan-2-yl)-6-(2-methylphenyl)-2-[(2-methyl-1,2,3,4-tetrahydroisoquinolin-7-yl)amino]pyrimido[4,5-d]pyridazin-5(6H)-one] gave a Ki of 0.3 nM. CN1CCN(c2ccc(Nc3ncc4c(=O)n(-c5c(Cl)cccc5Cl)nc(-c5ccn(CCCl)n5)c4n3)cc2)CC1 [Example 234, 8-[1-(2-chloroethyl)-1H-pyrazol-3-yl]-6-(2,6-dichlorophenyl)-2-{[4-(4-methylpiperazin-1-yl)phenyl]amino}pyrimido[4,5-d]pyridazin-5(6H)-one] was tested, and the Ki was 0.3 nM. For CN1CCN(c2ccc(Nc3ncc4c(=O)n(-c5c(Cl)cccc5Cl)nc(-c5ccn(CCN)n5)c4n3)cc2)CC1 [Example 235, 8-[1-(2-aminoethyl)-1H-pyrazol-3-yl]-6-(2,6-dichlorophenyl)-2-{[4-(4-methylpiperazin-1-yl)phenyl]amino}pyrimido[4,5-d]pyridazin-5(6H)-one], the Ki was 0.1 nM. C=Cn1ccc(-c2nn(-c3c(Cl)cccc3Cl)c(=O)c3cnc(Nc4ccc(N5CCN(C)CC5)cc4)nc23)n1 [Example 236, 6-(2,6-dichlorophenyl)-8-(1-ethenyl-1H-pyrazol-3-yl)-2-{[4-(4-methylpiperazin-1-yl)phenyl]amino}pyrimido[4,5-d]pyridazin-5(6H)-one] was tested, and the Ki was less than 1 nM. Work on O=c1c2cnc(Nc3ccc(N4CCNCC4)cc3)nc2c(-c2cccc(CN3CCCCC3)c2)nn1-c1c(Cl)cccc1Cl [Example 237, 6-(2,6-dichlorophenyl)-2-{[4-(piperazin-1-yl)phenyl]amino}-8-[3-(piperidin-1-ylmethyl)phenyl]pyrimido[4,5-d]pyridazin-5(6H)-one] yielded a Ki of 0.2 nM. With CC1(C)CNCc2cc(Nc3ncc4c(=O)n(-c5ccncc5)nc(-c5ccccn5)c4n3)ccc21 [Example 238, 2-[(4,4-dimethyl-1,2,3,4-tetrahydroisoquinolin-7-yl)amino]-8-(pyridin-2-yl)-6-(pyridin-4-yl)pyrimido[4,5-d]pyridazin-5(6H)-one] the Ki was 34 nM. CN1Cc2cc(Nc3ncc4c(=O)n(-c5ccncc5)nc(-c5ccccn5)c4n3)ccc2C(C)(C)C1 [Example 239, 8-(pyridin-2-yl)-6-(pyridin-4-yl)-2-[(2,4,4-trimethyl-1,2,3,4-tetrahydroisoquinolin-7-yl)amino]pyrimido[4,5-d]pyridazin-5(6H)-one] was tested, and the Ki was 25 nM. With CN(C)CCn1ccc(-c2nn(-c3c(Cl)cccc3Cl)c(=O)c3cnc(Nc4ccc(N5CCN(C)CC5)cc4)nc23)n1 [Example 240, 6-(2,6-dichlorophenyl)-8-{1-[2-(dimethylamino)ethyl]-1H-pyrazol-3-yl}-2-{[4-(4-methylpiperazin-1-yl)phenyl]amino}pyrimido[4,5-d]pyridazin-5(6H)-one] the Ki was 0.5 nM.
